Experimental data taken from US11583517B2, “Dual antagonist of PGD2/DPr2 and Thromboxane A2/TPr receptors and use for treatment of maladaptive immune response or thrombotic diathesis” (priority 2020, dated 2023).
“Also recorded” adds a separate entry of the source.

Assays:
[1] = system: pneumoconiosis; test: non-smoking stone crushers, chemoprophylaxis versus placebo; conditions: 5 years
[2] = system: COVID-19
[3] = system: TAO; test: male smokers with TAO, ramatroban versus aspirin; type: in vivo, human; conditions: 12 months
Source text: All patients can be prescribed standard therapies including pentoxifylline, iloprost, calcium antagonists, statins and low molecular weight heparin or oral anticoagulants. […] There is increase in blood flow in the dorsalis pedis and posterior tibial pulses arteries by doppler examination with a decrease in need for surgical procedures and amputations. Improvement was seen of active vascular lesions and pain symptoms.

[4] = system: Alzheimer's disease; test: AD patients randomized to four treatment groups; type: in vivo, human; conditions: long-term follow-up, compared with placebo
[5] = system: TAO; test: TAO patient and randomized control trial versus standard of care; type: in vivo, human
[6] = system: silicosis mice; conditions: silica-induced mouse model; cited from earlier work
[7] = system: viral infection; test: outbreak of viral infection in animal shelter facility; type: in vivo, dogs and cats; conditions: older animals
Source text: In a large animal shelter facility, there was an outbreak of viral infection largely affecting dogs and cats leading to deaths of many older animals, while the young animals survived.

[8] = system: asthma and allergic rhinitis; conditions: added to conventional therapeutic regimen
[9] = system: Kawasaki like disease; conditions: in vivo
[10] = system: acute viral pneumonia; type: in vivo, human
[11] = system: Parkinson's disease; test: patients with Parkinson's disease; type: in vivo, human
[12] = system: dye nephrotoxicity and acute kidney injury; test: ramatroban versus placebo prior to cardiac catheterization; type: in vivo, human; conditions: chronic kidney disease or heart failure, compared to placebo
Source text: Patients with chronic kidney disease or heart failure are randomized to receive ramatroban versus placebo prior to cardiac catheterization.

[13] = system: sickle cell disease; test: SCD patient given COVID-19 vaccine with ramatroban; type: in vivo, human
Protocol: A patient with sickle cell disease (SCD) has a past history of multiple vaso-occlusive crisis (VOC), acute chest syndrome (ACS) and ischemic cerebrovascular accidents. Patient is administered the AstraZeneca vaccine as prophylaxis against COVID-19. […] The same regimen is repeated at the time of the second dose of the vaccine. […] Other similar patients with SCD are found to experience high incidence of thrombotic events after COVID-19 vaccines.

[14] = system: primary pulmonary hypertension; test: patient with primary pulmonary hypertension; type: in vivo, human; conditions: person
Source text: Patient is diagnosed to have primary pulmonary hypertension.

[15] = system: Alzheimer's disease; conditions: in vivo; cited from earlier work
[16] = retrospective analysis of COVID-19 patients
[17] = retrospective analysis, ramatroban continued after discharge
[18] = Patient 6b, two months after start

Compound: O=C(O)CCn1c2c(c3ccccc31)C[C@H](NS(=O)(=O)c1ccc(F)cc1)CC2 [Ramatroban, 3-[(3R)-3-[(4-fluorophenyl)sulfonylamino]-1,2,3,4-tetrahydrocarbazol-9-yl]propanoic acid]
- lung compliance [1]: higher
- lung fibrosis [1]: significantly reduced
- pulmonary function tests and DLCO ([2]; after 2 months): normal
- chest X-ray ([2]; after 2 months, ramatroban continued as outpatient): complete resolution of the infiltrates with no evidence of any pulmonary fibrosis or scarring
- time to discharge home ([2]; person, 75 mg twice a day): 5 days
- lymphocyte counts [2, 16]: rapid improvement
- need for mechanical ventilation [2, 16]: less
- recovery time [2, 16]: shorter
- thrombocytopenia [2, 16]: rapid recovery
- fibrosis and scarring in the lungs [2, 17]: reduced
- lung function [2, 17]: better
- active vascular lesions and pain symptoms [3]: Improvement
- blood flow in the dorsalis pedis and posterior tibial arteries by doppler [3]: increase
- development of ulcers in the fingertips and toes, acrocyanosis, necrosis and loss of substance [3]: significantly less
- need for surgical procedures and amputations [3]: decrease
- cognition and memory [4]: improvement
- blood flow to the lower extremities ([5]; a) person): improvement
- gangrenous toes ([5]; a), chronic smoker): partial resolution and healing
- ischemic lesions ([5]; b) randomized control trial, versus control group): resolution
- blood flow ([5]; b) randomized control trial, with standard of care versus standard of care): improvement
- NLRP3 inflammasome, IL-1beta and caspase-1 [6]: inhibiting
- fibrosis and resulting cardiopulmonary dysfunction [6]: inhibiting; also recorded: significantly reducing
- infiltration with macrophages, lymphocytes and neutrophils [6]: reducing; also recorded: markedly inhibited
- lung compliance [6]: restoring
- silica-induced pulmonary inflammation [6]: alleviated
- infection severity [7]: marked decline
- mortality [7]: marked decrease
- improvement in symptoms [8]: 25%
- laboratory parameters [9]: marked improved
- prophylaxis against Kawasaki like disease [9]: remains healthy
- lung compliance ([10]; long term follow up): higher
- lung fibrosis ([10]; long term follow up): significantly reduced
- resolution of pneumonia during the hospitalization ([10]; versus placebo, with conventional therapy): significantly more rapid
- falls ([11]; Patient 6a): stops falling
- hallucinations ([11]; Patient 6a): no longer experiences hallucinations
- cognitive function ([11]; Patient 6a, at 4 months): significant improvement
- sense of balance ([11]; Patient 6a, first week of treatment): subjective improvement
- cognitive ability and sociability [11, 18]: marked improvements
- hallucinations [11, 18]: reduction
- physical functioning [11, 18]: significant improvement
- dye nephrotoxicity and acute kidney injury [12]: significantly less
- antibody response to vaccine ([13]; AstraZeneca vaccine, ramatroban 75 mg twice a day orally for one month): robust
- VOC, ACS, myocardial infarction or stroke ([13]; after vaccine, ramatroban 75 mg twice a day orally): no recrudescence or recurrence

Compound: COc1ccccc1Oc1c(NS(=O)(=O)c2ccc(C(C)(C)C)cc2)nc(-c2ncccn2)nc1OCCO [bosentan]
- clinical response [14]: no response

Compound: CCCc1nn(C)c2c(=O)[nH]c(-c3cc(S(=O)(=O)N4CCN(C)CC4)ccc3OCC)nc12 [sildenafil]
- clinical response [14]: no response

Compound: sodium oligomannate [sodium oligomannate (GV-971)]
- cognition and memory [4]: improvement
- cognitive impairment in Alzheimer's disease [15]: improves
